Laboratory results from paper PMC7242566, “The Three Lipocalins of Egg-White: Only Ex-FABP Inhibits Siderophore-Dependent Iron Sequestration by Salmonella Enteritidis” (Frontiers in Microbiology, 2020).
Values joined by “and” are separate entries in the source; they are usually repeats but may differ in a detail not shown here. Equal values may be shown once. Read-outs that look alike come from different tables or passages of the source.

What was measured:
Ex-FABP [1] = biological target: T1, Ex-FABP (Gallus gallus, UniProt P21760); settings: TQF, ref Correnti et al., 2011, cited from earlier work; for Kd: pH 7.4
T1 construct: made in house; host or cells: E. coli K-12 BW25113 ΔentB::kan (JW0587) (λDE3), pET21a, periplasmic secretion

LCN2 [2] = biological target: T2, LCN2 (Homo sapiens, UniProt P80188); settings: cited from earlier work; for Kd: TQF
T2 construct: made in house; host or cells: E. coli K-12 BW25113 ΔentB::kan (JW0587) (λDE3), pET21a

LCN2 [3] = biological target: T2, LCN2; assay: Isothermal titration calorimetry, siderophore binding to LCN2; settings: ITC; for n (binding stoichiometry) / ΔH (enthalpy) / ΔS (entropy) / Kd: TBS pH 7.4, 30°C; for Kd: 5 μM lipocalin
Method: (§1) Experiments were carried out with a GE Healthcare Microcal VP-ITC microcalorimeter according to the manufacturer’s guidelines (Operating Instructions 28-9639-79 AA). The device consisted of a motorized injection syringe, in which the ligand was loaded, with two adiabatic cells set at 30 °C. The left cell was filled with the reference (TBS with 1.3% DMSO), whereas the right cell was filled with 5 μM lipocalin protein dissolved in the same buffer. […] Samples were degassed and pre-equilibrated at the desired temperature using a GE MicroCal ThermoVac degassing station before loading into the syringe, sample cell and reference cell.

Ex-FABP [4] = biological target: T1, Ex-FABP; assay: biochemical; format: binding, chicken
Method: as §1

LCN2 [5] = biological target: T2, LCN2; set-up: method as in Li et al., 2015; settings: ITC, earlier report; ref Li et al., 2015; cited from earlier work
α-1-ovoglycoprotein = assay: Isothermal titration calorimetry, siderophore binding to α-1-ovoglycoprotein; set-up: species or system chicken; settings: ITC, TBS pH 7.4, 30°C, 5 μM recombinant non-glycosylated lipocalin
Method: as §1
(§2) FIGURE 2 Interactions between lipocalins and SE siderophores. […] Data for LCN2, Fe-Ent are shown in the Supplementary Figure S2.

[6] = set-up: method as in Chart and Rowe, 1993; settings: ref Chart and Rowe, 1993; cited from earlier work
Cal-γ = assay: Isothermal titration calorimetry, siderophore binding to Cal-γ; set-up: species or system chicken; settings: ITC, TBS pH 7.4, 30°C, 5 μM lipocalin
Method: as §1, §2

T2 sequence (P80188 with tags, fused parts or gaps): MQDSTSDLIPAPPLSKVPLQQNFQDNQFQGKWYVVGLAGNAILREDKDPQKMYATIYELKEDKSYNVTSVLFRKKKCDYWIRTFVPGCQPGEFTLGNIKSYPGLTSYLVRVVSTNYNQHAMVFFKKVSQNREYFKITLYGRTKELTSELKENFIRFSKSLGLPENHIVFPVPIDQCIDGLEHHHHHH
T1 sequence (P21760 21-178): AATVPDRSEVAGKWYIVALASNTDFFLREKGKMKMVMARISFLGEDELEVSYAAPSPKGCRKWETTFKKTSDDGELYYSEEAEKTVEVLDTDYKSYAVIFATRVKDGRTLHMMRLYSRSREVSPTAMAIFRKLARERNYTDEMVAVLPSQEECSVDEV

O=C(N[C@H]1COC(=O)[C@@H](NC(=O)c2cccc([O-])c2[O-])COC(=O)[C@@H](NC(=O)c2cccc([O-])c2[O-])COC1=O)c1cccc([O-])c1[O-].[Fe+3] [Fe^3+-Ent]
Kd (Ex-FABP [1]; read-out: Kd): 0.22 ± 0.06 nM | fold higher affinity for Fe^3+-Ent than apoEnt (Ex-FABP [1]): 2.3 fold | Kd (LCN2 [2]; ref Fischbach et al., 2006): 0.43 nM | Kd (LCN2 [2]; ref Goetz et al., 2002): 0.41 nM | fold higher affinity for Fe^3+-Ent than apoEnt (LCN2 [2]; ref Abergel et al., 2006): 8.7 fold | fold higher affinity for Fe^3+-Ent than apoEnt (LCN2 [3]): 4.9 fold | n (binding stoichiometry) (LCN2 [3]): 0.863 | ΔH (enthalpy) (LCN2 [3]): -26.2 kcal/mol | ΔS (entropy) (LCN2 [3]): −50.2 cal/mol, K | Kd (LCN2 [3]; read-out: Kd): 11.8 ± 8.8 nM | fold higher affinity for Fe^3+-Ent than apoEnt (Ex-FABP [4]; ITC): 16 fold | n (binding stoichiometry) (Ex-FABP [4]; ITC, TBS pH 7.4, 30°C): 0.672 | ΔH (enthalpy) (Ex-FABP [4]; ITC, TBS pH 7.4, 30°C): -19.4 kcal/mol | ΔS (entropy) (Ex-FABP [4]; ITC, TBS pH 7.4, 30°C): −26.1 cal/mol, K | Kd (Ex-FABP [4]; ITC, TBS pH 7.4, 30°C, 5 μM lipocalin, read-out: Kd): 5.3 ± 3.8 nM | Kd (LCN2 [5]): 240 nM

O=C(N[C@H]1COC(=O)[C@@H](NC(=O)c2cccc(O)c2O)COC(=O)[C@@H](NC(=O)c2cccc(O)c2O)COC1=O)c1cccc(O)c1O [apo-Ent, enterobactin]
Kd (Ex-FABP [1]; read-out: Kd): 0.5 ± 0.15 nM | Kd (α-1-ovoglycoprotein): Under threshold | Kd (α-1-ovoglycoprotein; listed as apoEnt): neither Cal-γ nor α-1-ovoglycoprotein bind | Kd (α-1-ovoglycoprotein; listed as enterobactin): No interactions could be measured | Kd (LCN2 [2]; ref Abergel et al., 2006): 3.57 nM | binding/affinity constant for Fe^3+ (ferric ion) [6]: 10^52 M^−1 | Kd (Cal-γ): Under threshold | Kd (Cal-γ; listed as apoEnt): neither Cal-γ nor α-1-ovoglycoprotein bind | Kd (Cal-γ; listed as enterobactin): No interactions could be measured | n (binding stoichiometry) (LCN2 [3]): 0.872 | ΔH (enthalpy) (LCN2 [3]): -27.8 kcal/mol | ΔS (entropy) (LCN2 [3]): −58.9 cal/mol, K | Kd (LCN2 [3]; Kd): 58 nM and 58.4 nM | Kd (Ex-FABP [4]): 86.2 ± 14.6 nM | n (binding stoichiometry) (Ex-FABP [4]; ITC, TBS pH 7.4, 30°C): 0.617 | ΔH (enthalpy) (Ex-FABP [4]; ITC, TBS pH 7.4, 30°C): -28.3 kcal/mol | ΔS (entropy) (Ex-FABP [4]; ITC, TBS pH 7.4, 30°C): −60.9 cal/mol, K

salmochelin [apo-Sal (or DGE)]
Kd (Ex-FABP [1]): Under threshold | Kd (α-1-ovoglycoprotein): Under threshold | Kd (α-1-ovoglycoprotein; listed as apoDGE): neither Cal-γ nor α-1-ovoglycoprotein bind | Kd (α-1-ovoglycoprotein; listed as salmochelin): No interactions could be measured | Kd (Cal-γ): Under threshold | Kd (Cal-γ; listed as apoDGE): neither Cal-γ nor α-1-ovoglycoprotein bind | Kd (Cal-γ; listed as salmochelin): No interactions could be measured | Kd (LCN2 [3]): No binding was observed | Kd (Ex-FABP [4]; ITC, TBS pH 7.4, 30°C, 5 μM lipocalin): No interactions could be measured | Kd (Ex-FABP [4]; ITC, TBS pH 7.4, 30°C, 5 μM lipocalin, listed as apoDGE): failed to interact
